Values of other authors in patent US11549142B2, “CETP inhibitors for therapeutic use” (Hoffmann-La Roche Inc., priority 2013, dated 2023).

System: patients
Conditions: torcetrapib and atorvastatin concomitantly compared to atorvastatin alone; cited from earlier work

## CCOC(=O)N1c2ccc(C(F)(F)F)cc2[C@@H](N(Cc2cc(C(F)(F)F)cc(C(F)(F)F)c2)C(=O)OC)C[C@H]1CC [torcetrapib, (2R,4S)-4-[(3,5-bistrifluoromethylbenzyl)methoxycarbonylamino]-2-ethyl-6-trifluoromethyl-3,4-dihydro-2H-quinoline-1-carboxylic acid ethyl ester]
  reason for termination of the Phase III clinical trial: incidence of mortality
